# Measurements as given in patent US12577536B2, “Method for isolating ureteric bud tip cells” (KYOTO UNIVERSITY, priority 2019, dated 2026).
# Tests used:
# Assay type in all cases: cell-based, human
# [1] = tested on: dissociated tip colony cells; test: Collecting duct progenitor induction, 2D culture with immunostaining
# Protocol: For 2D cultures, day 7 tip cell colonies detached from hydrogel were dissociated into single cells by pipetting after treatment with Accutase for 3 min at 37° C. The single cells were resuspended with Essential 6 medium containing 1 μM IWR-1 (Tocris) and 0.5 μL/cm^2 iMatrix-511 silk with or without 1 μM A83-01 and seeded at a density of 4×10^4 cells/well in 96-well plates. For 3D cultures, day 14 reconstituted iUB organoids were treated with Essential 6 medium containing 1 μM IWR-1 and 1 μM A83-01 for 14 days.
# Immunostaining analysis was performed as described previously with some modifications (Mae, SI. & Ryosaka, M. et al. Biochem Biophys Res Commun. 495, 954-61 (2018)). For 2D cultures, the cells were fixed with 4% paraformaldehyde (PFA)/PBS for 20 min at 4° C. After washing with PBS twice, the cells were blocked with 18 normal donkey serum (MERCK) and 3% bovine serum albumin (BSA; Nacalai Tesque)/PBST (PBS/0.25% Triton X-100, Nacalai Tesque) for 1 h at room temperature. Primary antibodies were diluted with blocking solution at 1:500 and incubated with the samples overnight at 4° C. After washing with PBST twice, secondary antibodies diluted with blocking solution at 1:500 were incubated for 1 h at room temperature.
# tip cell colonies = test: Reconstitution of iUB organoids from tip cell colonies; conditions: organoid medium with CHIR99021
# Protocol: Hydrogel was dissolved with Cell Recovery Solution (BD Biosciences) for 1 h at 4° C. to detach day 7 tip cell colonies. After washing with additional Cell Recovery Solution, the tip cell colonies were centrifuged at 500 g for 5 min at room temperature. Essential 6 medium containing 0.1 μM LDN193189, 100 ng/ml GDNF, 0.1 μM TTNPB, 200 ng/ml FGF8, 1 μM CHIR99021 or 10% Afamin/Wnt3a conditioned medium (MBL), 200 ng/ml R-spondin 1 (R&D systems), 50 ng/ml EGF, 200 ng/ml FGF1 and 10% Matrigel was applied to the tube including tip cell colonies. After pipetting gently with a wide-mouth micropipette (BMBio) not to break colonies, the suspension was distributed to low-attachment 35 mm dish (Sumitomo Bakelite) at 2 mL/dish. The medium was refreshed every 2 days. On day 4, each colony was placed onto one well of low-attachment 96-well plates in the same medium. After an additional 6 days, the tip region was separated from the reconstituted iUB organoid and treated with the same medium for 35 days.
# [2] = tested on: ND aggregates / iUB organoids; test: iUB organoid induction from ND aggregates; conditions: 50 ng/ml EGF and 200 ng/ml FGF1 added together to organoid medium
# Protocol: Unwanted cells were removed from the ND aggregates by pipetting (Mae, SI. & Ryosaka, M. et al. Biochem Biophys Res Commun. 495, 954-61 (2018)). The ND aggregates were treated with the same medium and factors containing 2% Matrigel for 6 days to constitute iUB organoids with epithelial polarity and tubular lumens. 50 ng/ml EGF (R&D Systems) and 200 ng/ml FGF1 (R&D Systems) were added to enhance budding. The tips were mechanically separated from iUB organoids and cultured in the same medium and factors containing 2% Matrigel for 6 to 14 days to reconstitute branching iUB organoids. The tips separated from the reconstituted iUB organoids were treated with the same medium and factors to repeatedly reconstitute iUB organoids.
molecule,measurement,setting,value
"Cc1cccc(-c2nn(C(=S)Nc3ccccc3)cc2-c2ccnc3ccccc23)n1 [A83-01, 3-(6-Methyl-2-pyridinyl)-N-phenyl-4-(4-quinolinyl)-1H-pyrazole-1-carbothioamide]",induction rates of AQP2-expressing cells,"[1]; 1 μM A83-01 in combination with 1 μM IWR-1, day 7 of 2D culture",improved the induction rates of these cells
"Cc1c[nH]c(-c2cnc(NCCNc3ccc(C#N)cn3)nc2-c2ccc(Cl)cc2Cl)n1 [CHIR99021, 6-[2-[4-(2,4-Dichlorophenyl)-5-(4-methyl-1H-imidazole-2-yl)pyrimidine-2-ylamino]ethylamino]pyridine-3-carbonitrile]",reconstitution of iUB organoids from tip cell colonies,tip cell colonies,only observed with tip cell colonies derived from 585A1 iPS cells
O=C(Nc1cccc2cccnc12)c1ccc(N2C(=O)[C@@H]3[C@H](C2=O)[C@@H]2C=C[C@H]3C2)cc1 [IWR-1],"differentiation into AQP2-expressing, CAII-negative cells","[1]; 1 μM IWR-1, day 7 of 2D culture","facilitated the differentiation of dissociated tip colony cells into the cells expressing a collecting duct principal cell marker, Aquaporin (AQP) 2"
"EGF: protein called Epidermal Growth Factor (R&D systems) (NSDSECPLSHDGYCLHDGVCMYIEALDKYACNCVVGYIGERCQYRDLKWWELR; Epidermal growth factor; UniProt P01133 971-1023, looked up)",budding of iUB organoids,[2],promoted budding
FGF1: fibroblast growth factor,budding of iUB organoids,[2],promoted budding
